Test results taken from ChEMBL document CHEMBL1201862, “PubChem BioAssay data set” (2004).
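Cultured in 96-well plates, cells were exposed to test compound for 48 hours across five concentrations. Abbreviation: GI50, concentration required for 50% inhibition of growth.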 The source made the active and inactive calls. Rule as the data show it: active = GI50 up to about 1.1 µM and inactive = higher.

What was measured:
Assay in all cases: NCI tumour cell line growth inhibition, 48 h
786-0 = tested on: 786-0
A498 = tested on: A498
A549 = tested on: A549
ACHN = tested on: ACHN
BT-549 = tested on: BT-549
CAKI-1 = tested on: CAKI-1
CCRF-CEM = tested on: CCRF-CEM
COLO 205 = tested on: COLO 205
DU-145 = tested on: DU-145
EKVX = tested on: EKVX
HCC 2998 = tested on: HCC 2998
HCT-116 = tested on: HCT-116
HCT-15 = tested on: HCT-15
HL-60 = tested on: HL-60
HOP-62 = tested on: HOP-62
HOP-92 = tested on: HOP-92
HT-29 = tested on: HT-29
Hs-578T = tested on: Hs-578T
IGROV-1 = tested on: IGROV-1
K562 = tested on: K562
KM12 = tested on: KM12
LOX IMVI = tested on: LOX IMVI
M14 = tested on: M14
MCF7 = tested on: MCF7
MDA-MB-231 = tested on: MDA-MB-231
MDA-MB-435 = tested on: MDA-MB-435
MDA-N = tested on: MDA-N
MOLT-4 = tested on: MOLT-4
Malme-3M = tested on: Malme-3M
NCI-H226 = tested on: NCI-H226
NCI-H23 = tested on: NCI-H23
NCI-H460 = tested on: NCI-H460
NCI-H522 = tested on: NCI-H522
NCI/ADR-RES = tested on: NCI/ADR-RES
OVCAR-3 = tested on: OVCAR-3
OVCAR-4 = tested on: OVCAR-4
OVCAR-5 = tested on: OVCAR-5
OVCAR-8 = tested on: OVCAR-8
PC-3 = tested on: PC-3
RPMI-8226 = tested on: RPMI-8226
RXF 393 = tested on: RXF 393
SF-268 = tested on: SF-268
SF-295 = tested on: SF-295
SF-539 = tested on: SF-539
SK-MEL-28 = tested on: SK-MEL-28
SK-MEL-2 = tested on: SK-MEL-2
SK-MEL-5 = tested on: SK-MEL-5
SK-OV-3 = tested on: SK-OV-3
SN12C = tested on: SN12C
SNB-19 = tested on: SNB-19
SNB-75 = tested on: SNB-75
SR = tested on: SR
SW-620 = tested on: SW-620
T47D = tested on: T47D
TK-10 = tested on: TK-10
U-251 = tested on: U-251
UACC-257 = tested on: UACC-257
UACC-62 = tested on: UACC-62
UO-31 = tested on: UO-31

Question: For `CC(C)=CCC[C@@H](C)C1=C(O)C(=O)C(C)=C(N[C@H](C)c2ccccc2)C1=O`, which GI50 (786-0) is on record?
Answer: Its GI50 is 3.66 µM (inactive).

Question: What about the GI50 (A498) of the same compound?
Answer: Its GI50 is 3.91 µM (inactive).

Question: And the GI50 (A549)?
Answer: Its GI50 is 3.28 µM (inactive).

Question: And the GI50 (ACHN)?
Answer: The GI50 was 3.72 µM (inactive).

Question: And the GI50 (BT-549)?
Answer: The GI50 was 7.16 µM (inactive).

Question: And the GI50 (CAKI-1)?
Answer: The GI50 was 4.11 µM (inactive).

Question: What about the GI50 (CCRF-CEM) of the same compound?
Answer: Its GI50 is 0.923 µM (active).

Question: And the GI50 (COLO 205)?
Answer: The GI50 was 4.33 µM (inactive).

Question: What about the GI50 (DU-145) of the same compound?
Answer: The GI50 was 6.53 µM (inactive).

Question: What about the GI50 (EKVX) of the same compound?
Answer: The GI50 was 5.08 µM (inactive).

Question: And the GI50 (HCC 2998)?
Answer: Its GI50 is 11.7 µM (inactive).

Question: What about the GI50 (HCT-116) of the same compound?
Answer: The GI50 was 4.66 µM (inactive).

Question: And the GI50 (HCT-15)?
Answer: Its GI50 is 2.67 µM.

Question: And the GI50 (HL-60)?
Answer: The GI50 was 2.21 µM (inactive).

Question: And the GI50 (HOP-62)?
Answer: The GI50 was 2.92 µM (inactive).

Question: And the GI50 (HOP-92)?
Answer: The GI50 was 6.14 µM (inactive).

Question: And the GI50 (HT-29)?
Answer: Its GI50 is 3.78 µM (inactive).

Question: What about the GI50 (Hs-578T) of the same compound?
Answer: The GI50 was 6.12 µM (inactive).

Question: And the GI50 (IGROV-1)?
Answer: Its GI50 is 3.8 µM (inactive).

Question: What about the GI50 (K562) of the same compound?
Answer: The GI50 was 6.64 µM (inactive).

Question: What about the GI50 (KM12) of the same compound?
Answer: The GI50 was 6.3 µM (inactive).

Question: What about the GI50 (LOX IMVI) of the same compound?
Answer: The GI50 was 4.53 µM (inactive).

Question: And the GI50 (M14)?
Answer: The GI50 was 5.41 µM (inactive).

Question: And the GI50 (MCF7)?
Answer: Its GI50 is 3.64 µM (inactive).

Question: What about the GI50 (MDA-MB-231) of the same compound?
Answer: The GI50 was 7.35 µM (inactive).

Question: And the GI50 (MDA-MB-435)?
Answer: Its GI50 is 7.1 µM (inactive).

Question: And the GI50 (MDA-N)?
Answer: The GI50 was 7.23 µM (inactive).

Question: And the GI50 (MOLT-4)?
Answer: The GI50 was 2.54 µM (inactive).

Question: What about the GI50 (Malme-3M) of the same compound?
Answer: The GI50 was 3.24 µM (inactive).

Question: And the GI50 (NCI-H226)?
Answer: Its GI50 is 4.27 µM (inactive).

Question: What about the GI50 (NCI-H23) of the same compound?
Answer: The GI50 was 4.38 µM (inactive).

Question: What about the GI50 (NCI-H460) of the same compound?
Answer: Its GI50 is 2.75 µM (inactive).

Question: And the GI50 (NCI-H522)?
Answer: The GI50 was 3.2 µM (inactive).

Question: And the GI50 (NCI/ADR-RES)?
Answer: Its GI50 is 1.3 µM (inactive).

Question: And the GI50 (OVCAR-3)?
Answer: Its GI50 is 5.36 µM (inactive).

Question: What about the GI50 (OVCAR-4) of the same compound?
Answer: The GI50 was 5.75 µM (inactive).

Question: And the GI50 (OVCAR-5)?
Answer: The GI50 was 16.3 µM (inactive).

Question: And the GI50 (OVCAR-8)?
Answer: The GI50 was 2.58 µM (inactive).

Question: What about the GI50 (PC-3) of the same compound?
Answer: The GI50 was 10.9 µM (inactive).

Question: What about the GI50 (RPMI-8226) of the same compound?
Answer: The GI50 was 6.31 µM (inactive).

Question: What about the GI50 (RXF 393) of the same compound?
Answer: The GI50 was 6.71 µM (inactive).

Question: What about the GI50 (SF-268) of the same compound?
Answer: The GI50 was 7.01 µM (inactive).

Question: And the GI50 (SF-295)?
Answer: The GI50 was 3.86 µM (inactive).

Question: And the GI50 (SF-539)?
Answer: The GI50 was 3.11 µM (inactive).

Question: And the GI50 (SK-MEL-28)?
Answer: Its GI50 is 6.76 µM (inactive).

Question: What about the GI50 (SK-MEL-2) of the same compound?
Answer: Its GI50 is 10.2 µM (inactive).

Question: What about the GI50 (SK-MEL-5) of the same compound?
Answer: Its GI50 is 3.08 µM (inactive).

Question: What about the GI50 (SK-OV-3) of the same compound?
Answer: The GI50 was 3.84 µM (inactive).

Question: And the GI50 (SN12C)?
Answer: Its GI50 is 6.55 µM (inactive).

Question: And the GI50 (SNB-19)?
Answer: Its GI50 is 6.07 µM (inactive).

Question: And the GI50 (SNB-75)?
Answer: The GI50 was 2.53 µM (inactive).

Question: And the GI50 (SR)?
Answer: The GI50 was 22.3 µM (inactive).

Question: And the GI50 (SW-620)?
Answer: Its GI50 is 5.92 µM (inactive).

Question: And the GI50 (T47D)?
Answer: Its GI50 is 4.31 µM (inactive).

Question: And the GI50 (TK-10)?
Answer: Its GI50 is 8.17 µM (inactive).

Question: What about the GI50 (U-251) of the same compound?
Answer: The GI50 was 5.51 µM (inactive).

Question: What about the GI50 (UACC-257) of the same compound?
Answer: Its GI50 is 8.36 µM (inactive).

Question: What about the GI50 (UACC-62) of the same compound?
Answer: Its GI50 is 2.81 µM (inactive).

Question: What about the GI50 (UO-31) of the same compound?
Answer: Its GI50 is 4.27 µM (inactive).
